Test results taken from patent US20230081426A1, “COMPOUNDS AND METHODS FOR KRAS MODULATION AND INDICATIONS THEREFOR” (Plexxikon Inc., priority 2020, published 2023).

Key:
[1] = biological target: T1, G12D-mutant human KRAS (amino acid residues 1-188) (Homo sapiens, UniProt P01116, G12D); test: KRAS Binding Disruption Assay (AlphaScreen; biotinylated KRpep-2d analogue or RAF1-RBD), G12D; conditions: KRAS G12D; geometric mean; read-out: KRAS GMean IC50 (uM) MUTATION: G12D
T1 construct: G12D or G12C-mutant human KRAS (amino acid residues 1-188) with FLAG tag; made in house; host or cells: E. coli
How it was run: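 Displacement format with mutant KRAS, biotinylated KRpep-2d analogue or RAF1-RBD (5-20 nM each) at pH 7.5 with 5 mM MgCl2.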

[2] = biological target: T2, G12V-mutant human KRAS (amino acid residues 1-188) (Homo sapiens, UniProt P01116, G12V); test: KRAS Binding Competition Assay (AlphaScreen; biotinylated KRpep-2d analogue), G12V; conditions: geometric mean, read-out: KRAS GMean IC50 (uM) MUTATION: G12V
T2 construct: G12V-mutant human KRAS (amino acid residues 1-188) with FLAG tag was purified from E. coli; made in house; host or cells: E. coli

Row | Structure (SMILES) | IC50 [1] [µM] | IC50 [2] [µM]
1 | CN1CCC[C@H]1COc1nc(N2[C@@H]3CC[C@H]2CN(C(=O)NO)C3)c2ccc(-c3cc(O)cc4ccccc34)cc2n1 [P-0213, (1R,5S)-N-hydroxy-8-(7-(3-hydroxynaphthalen-1-yl)-2-(((S)-1-methylpyrrolidin-2-yl)methoxy)quinazolin-4-yl)-3,8-diazabicyclo[3.2.1]octane-3-carboxamide] | 10 to 100 | 10 to 100
2 | OCC1(COc2nc(N3C[C@H]4CC[C@@H](C3)N4)c3ccc(-c4cc(O)cc5ccccc45)c(F)c3n2)CCOCC1 [P-0612, 4-(4-((1R,5S)-3,8-diazabicyclo[3.2.1]octan-3-yl)-8-fluoro-2-((4-(hydroxymethyl)tetrahydro-2H-pyran-4-yl)methoxy)quinazolin-7-yl)naphthalen-2-ol] | 0.0001 to 10 | 10 to 100
3 | Cc1cccc2cccc(-c3ccc4c(N5CC6CCC(C5)N6C(=O)CC#N)nc(OC[C@@H]5CCCN5C)nc4c3F)c12 (racemic) [P-0019, 3-((1R,5S)-3-(8-fluoro-7-(8-methylnaphthalen-1-yl)-2-(((RS)-1-methylpyrrolidin-2-yl)methoxy)quinazolin-4-yl)-3,8-diazabicyclo[3.2.1]octan-8-yl)-3-oxopropanenitrile] | 10 to 100 | 10 to 100
4 | CN1CCc2c(cccc2Oc2nc(N3C[C@H]4CC[C@@H](C3)N4)c3ccc(-c4cc(O)cc5ccccc45)c(F)c3n2)C1 [P-0623, 4-(4-((1R,5S)-3,8-diazabicyclo[3.2.1]octan-3-yl)-8-fluoro-2-((2-methyl-1,2,3,4-tetrahydroisoquinolin-5-yl)oxy)quinazolin-7-yl)naphthalen-2-ol] | 0.0001 to 10 | 10 to 100
5 | CN1CCC[C@H]1COc1nc(N2C[C@H]3CC[C@@H](C2)N3)c2cnc(N3CC(=O)Nc4cccc(Cl)c43)c(F)c2n1 [P-0444, 4-(4-((1R,5S)-3,8-diazabicyclo[3.2.1]octan-3-yl)-8-fluoro-2-(((S)-1-methylpyrrolidin-2-yl)methoxy)pyrido[4,3-d]pyrimidin-7-yl)-5-chloro-3,4-dihydroquinoxalin-2(1H)-one] | 10 to 100 | 100 to 1000
6 | CN1CCC[C@H]1COc1nc(N2[C@@H]3CC[C@H]2CN(C(=O)C(=O)Nc2ccccn2)C3)c2ccc(-c3cc(O)cc4ccccc34)cc2n1 [P-0229, 2-((1R,5S)-8-(7-(3-hydroxynaphthalen-1-yl)-2-(((S)-1-methylpyrrolidin-2-yl)methoxy)quinazolin-4-yl)-3,8-diazabicyclo[3.2.1]octan-3-yl)-2-oxo-N-(pyridin-2-yl)acetamide] | 10 to 100 | 10 to 100
7 | CN1CCC[C@H]1COc1nc(N2[C@@H]3CC[C@H]2CN(C(=O)[C@@H]2C[C@@H](O)CN2)C3)c2ccc(-c3cc(O)cc4ccccc34)cc2n1 [P-0202, ((1R,5S)-8-(7-(3-hydroxynaphthalen-1-yl)-2-(((S)-1-methylpyrrolidin-2-yl)methoxy)quinazolin-4-yl)-3,8-diazabicyclo[3.2.1]octan-3-yl)((2S,4R)-4-hydroxypyrrolidin-2-yl)methanone] | 0.0001 to 10 | 10 to 100
8 | CN1CCC[C@H]1COc1nc(N2[C@@H]3CC[C@H]2CNC3)c2ccc(-c3cc(N)cc4ccccc34)cc2n1 [P-0265, 4-(4-((1R,5S)-3,8-diazabicyclo[3.2.1]octan-8-yl)-2-(((S)-1-methylpyrrolidin-2-yl)methoxy)quinazolin-7-yl)naphthalen-2-amine] | 0.0001 to 10 | 0.0001 to 10
9 | CN(C)c1ccc(Oc2nc(N3C[C@H]4CC[C@@H](C3)N4)c3cc(Cl)c(-c4c(O)cccc4F)c(F)c3n2)cc1 [P-0361, 2-(4-((1R,5S)-3,8-diazabicyclo[3.2.1]octan-3-yl)-6-chloro-2-(4-(dimethylamino)phenoxy)-8-fluoroquinazolin-7-yl)-3-fluorophenol] | 0.0001 to 10 | 0.0001 to 10

Results, then the compound that gave them:

Row | IC50 [1] [µM] | IC50 [2] [µM] | Structure (SMILES)
10 | 0.0001 to 10 | 0.0001 to 10 | CN1CCC[C@H]1COc1nc(N2CC3COCC(C2)N3)c2cc(Cl)c(-c3cc(O)cc4ccccc34)c(F)c2n1 [P-0357, 4-(4-(3-oxa-7,9-diazabicyclo[3.3.1]nonan-7-yl)-6-chloro-8-fluoro-2-(((S)-1-methylpyrrolidin-2-yl)methoxy)quinazolin-7-yl)naphthalen-2-ol]
11 | 0.0001 to 10 | 10 to 100 | CN1CCC[C@H]1COc1nc(N2C[C@H]3CC[C@@H](C2)N3)c2ccc(-c3c[nH]c4ccccc34)c(F)c2n1 [P-0293, 4-((1R,5S)-3,8-diazabicyclo[3.2.1]octan-3-yl)-8-fluoro-7-(1H-indol-3-yl)-2-(((S)-1-methylpyrrolidin-2-yl)methoxy)quinazoline]
12 | 0.0001 to 10 | 100 to 1000 | CN1CCC[C@H]1COc1nc(N2C[C@H]3CC[C@@H](C2)N3c2cnccn2)c2ccc(-c3cc(O)cc4ccccc34)c(F)c2n1 [P-0469, 4-(8-fluoro-2-(((S)-1-methylpyrrolidin-2-yl)methoxy)-4-((1R,5S)-8-(pyrazin-2-yl)-3,8-diazabicyclo[3.2.1]octan-3-yl)quinazolin-7-yl)naphthalen-2-ol]
13 | 0.0001 to 10 | 10 to 100 | CN1CCC[C@H]1COc1nc(N2C[C@H]3CC[C@@H](C2)N3CC(=O)C2CCOC2)c2ccc(-c3cc(O)cc4ccccc34)c(F)c2n1 (stereo partly drawn) [P-0278, 2-((1R,5S)-3-(8-fluoro-7-(3-hydroxynaphthalen-1-yl)-2-(((S)-1-methylpyrrolidin-2-yl)methoxy)quinazolin-4-yl)-3,8-diazabicyclo[3.2.1]octan-8-yl)-1-(tetrahydrofuran-3-yl)ethan-1-one]
14 | 0.0001 to 10 | 10 to 100 | CN1CCC[C@H]1COc1nc(N2C[C@H]3CC[C@@H](C2)N3S(=O)(=O)N[C@@H]2CCNC2)c2ccc(-c3cc(O)cc4ccccc34)c(F)c2n1 [P-0405, (1R,5S)-3-(8-fluoro-7-(3-hydroxynaphthalen-1-yl)-2-(((S)-1-methylpyrrolidin-2-yl)methoxy)quinazolin-4-yl)-N-((R)-pyrrolidin-3-yl)-3,8-diazabicyclo[3.2.1]octane-8-sulfonamide]
15 | 0.0001 to 10 | 10 to 100 | CN1CCC[C@H]1COc1nc(N2C[C@H]3CC[C@@H](C2)N3C(=O)[C@H]2CCCN2)c2ccc(-c3cc(O)cc4ccccc34)c(F)c2n1 [P-0403, 4-((1R,5S)-8-(D-prolyl)-3,8-diazabicyclo[3.2.1]octan-3-yl)-8-fluoro-7-(3-hydroxynaphthalen-1-yl)-2-(((S)-1-methylpyrrolidin-2-yl)methoxy)quinazoline]
16 | 0.0001 to 10 | 0.0001 to 10 | CN1CCCC1COc1nc(N2C[C@H]3CC[C@@H](C2)N3C(=O)NC2COC(C)(C)C2)c2ccc(-c3cc(O)cc4ccccc34)c(F)c2n1 (stereo partly drawn) [P-0417, (1R,5S)-N-(5,5-dimethyltetrahydrofuran-3-yl)-3-(8-fluoro-7-(3-hydroxynaphthalen-1-yl)-2-((1-methylpyrrolidin-2-yl)methoxy)quinazolin-4-yl)-3,8-diazabicyclo[3.2.1]octane-8-carboxamide]
17 | 0.0001 to 10 | 10 to 100 | CN1CCC[C@H]1COc1nc(N2C[C@H]3CC[C@@H](C2)N3)c2ccc(-c3cc(N)cc4ccccc34)cc2n1 [P-0340, 4-(4-((1R,5S)-3,8-diazabicyclo[3.2.1]octan-3-yl)-2-(((S)-1-methylpyrrolidin-2-yl)methoxy)quinazolin-7-yl)naphthalen-2-amine]
